“Also recorded” adds a separate entry of the source.
Tests used:
PPP2R2B = experiment: RT-PCR analysis of PPP2R2B expression; type: cell-based, human; settings: DLD1 cells, 5 μM for 3 days
Method: For RT-PCR, total RNA was reverse-transcribed using oligo(dT)12-18 primer (SEQ ID NO: 6)with Superscript II reverse transcriptase (Invitrogen). 100 ng of cDNA was used for PCR. The primers PPP2R2B F: 5′ […] 3′ (SEQ ID NO: 7) and PPP2R2B R: 5′ (SEQ ID NO: 8) […] 3′ were used to amplify the PPP2R2B cDNA.

p-Myc(T58/S62) = experiment: Immunoblot analysis of Myc phosphorylation; type: cell-based, human; settings: DLD1 cells; for effect on rapamycin-induced Myc phosphorylation: BX912 2.5 μM or PIK90 5 μM with rapamycin 10 nM
SW480 cells = experiment: Morphologies of SW480 cells under treatment; type: cell-based, human
p-AKT (S473) = experiment: Immunoblot analysis of AKT S473 phosphorylation; type: cell-based, human; settings: DLD1 cells; for effect on AKT S473 phosphorylation: BX912 2.5 μM or PIK90 5 μM with rapamycin 10 nM, 48 hr
DLD1 and SW480 cells [1] = experiment: Monolayer dense foci / colony formation of DLD1 and SW480 cells; type: cell-based, human; settings: BX912 2.5 μM plus rapamycin 10 nM, 2-week colony formation assay
Method: For DLD1 and HCT116 inducible cells foci formation assay, 1×10^4 cells were seeded on 6-well plate with or without treatment with Dox or rapamcycin. […]

DLD1 and SW480 cells [2] = experiment: Cell viability of DLD1 and SW480 cells under drug combinations; type: cell-based, human; settings: BX912 2.5 μM plus rapamycin 10 nM, 5-day cell viability assay
Method: Cell viability was measured using CellTiter-Glo™ Luminescent Cell Viability Assay (Promega).
(§1) In brief, 1000 cells were seeded in 96-well plate and the cell number was measured following manufacturer's instruction. To detect the senescence in DLD1-tet on cells, cells were treated with Dox for 48 hr and SA-β-Gal staining was performed according to the protocol of Senescence Detection kit (BioVision). Cell cycle analysis was done by DNA content quantification.

SW480 and DLD1 cells = experiment: G2/M phase arrest by PI staining and FACS in SW480 and DLD1 cells; type: cell-based, human; settings: BX912 2.5 μM or PIK90 with rapamycin 10 nM, 48 h
Method: as §1
The cells were fixed with 70% ethanol and stained with propidium iodide (50 μg/ml) staining. The stained cells were analyzed by FACScalibur (BD Bioscience) and quantified by using CellQuest software (BD bioscience).

human cancers = settings: also with intermittent dosing schedule; cited from earlier work
[3] = system: behavioral tasks and aggregate formation; settings: mouse model of HD; cited from earlier work
[4] = cited from earlier work
[5] = system: HEK-TERV cells transformed with PDK1, Myc, shPTEN or PI3K E545K; experiment: Cell viability / proliferation of transformed HEK-TERV cells with PLK1 inhibitors; type: cell-based, human

Nc1ncn([C@H]2C[C@H](O)[C@@H](CO)O2)c(=O)n1 [5-aza-dC]
PPP2R2B expression (PPP2R2B): re-expression of PPP2R2B

Cn1c(=O)n(-c2ccc(C(C)(C)C#N)cc2)c2c3cc(-c4cnc5ccccc5c4)ccc3ncc21 [BEZ235]
Myc phosphorylation (p-Myc(T58/S62); BEZ 235 100 nM, 48 hr): induced Myc phosphorylation

O=C(Nc1cccc(Nc2ncc(Br)c(NCCc3cnc[nH]3)n2)c1)N1CCCC1 [BX912]
morphological change (SW480 cells): induced a morphological change similar to that seen upon PPP2R2B re-expression | effect on AKT S473 phosphorylation (p-AKT (S473)): had no much effect on AKT S473 | loss of cell viability in combination with rapamycin (colony formation) (DLD1 and SW480 cells [1]): synergistic loss of cell viability | loss of cell viability in combination with rapamycin (DLD1 and SW480 cells [2]): synergistic loss of cell viability | effect on rapamycin-induced Myc phosphorylation (p-Myc(T58/S62); 48 hr): abolished rapamycin-induced Myc phosphorylation | G2/M arrest in combination with rapamycin (SW480 and DLD1 cells): synergized with rapamycin to induce strong G2/M arrest

CO[C@H]1C[C@@H]2CC[C@@H](C)[C@@](O)(O2)C(=O)C(=O)N2CCCC[C@H]2C(=O)O[C@H]([C@H](C)C[C@@H]2CC[C@@H](OC(=O)C(C)(CO)CO)[C@H](OC)C2)CC(=O)[C@H](C)/C=C(\C)[C@@H](O)[C@@H](OC)C(=O)[C@H](C)C[C@H](C)/C=C/C=C/C=C/1C [CCI 779, rapamycin 42-[2,2-bis(hydroxymethyl)propionate]]
growth of cancers (human cancers): inhibit the growth of a diverse range of cancer types | behavioral performance and aggregate formation [3]: improved performance on 4 different behavioral tasks and decreased aggregate formation | water solubility [4]: water soluble

COc1cc2ncn(-c3cc(OCc4ccccc4C(F)(F)F)c(C(N)=O)s3)c2cc1OC [GW843682X]
selectivity of inhibition of proliferation / cell viability (dose-response) ([5]; HEK-PDK1 and HEK-Myc vs HEK-PMN and HEK-shPTEN cells, 4 days): more selectively decrease the cell viability of PDK1 or Myc-transformed cells; also recorded: more selectively inhibit the proliferation of PDK1 or Myc-transformed HEK cells | growth inhibition in kinase inhibitor screen ([5]; HEK-PDK1 cells compared to HEK-vector control cells (PMN)): selective growth inhibition effect

COc1ccc2c(c1OC)N=C(NC(=O)c1cccnc1)N1CCN=C21 [PIK90]
morphological change (SW480 cells): not | effect on AKT S473 phosphorylation (p-AKT (S473)): effectively abolished the AKT S473 phosphorylation | effect on rapamycin-induced Myc phosphorylation (p-Myc(T58/S62); 48 hr): unable to inhibit rapamycin-induced Myc phosphorylation | G2/M arrest in combination with rapamycin (SW480 and DLD1 cells): not

Oc1cccc(-c2nc(N3CCOCC3)c3oc4ncccc4c3n2)c1 [PIK-103]
AKT S473 phosphorylation (p-AKT (S473); 0.5 μM): reduced AKT 5473 phosphorylation | Myc phosphorylation (p-Myc(T58/S62); 0.5 μM): enhanced Myc phosphorylation
